Test results taken from patent US10576085B2, “Substituted aminopurine compounds, compositions thereof, and methods of treatment therewith” (Signal Pharmaceuticals, LLC, priority 2016, dated 2020).

Key:
[1] = system: WI38 VA13 cells expressing 8×GTIIC-luciferase; experiment: Viability assay (Cell Titer Fluor); format: cell-based; settings: 24 or 72 hours; across three assays
Method: In parallel 10,000 WI38 VA13 cells expressing 8×GTIIC-luciferase were seeded in each well of a black-walled 96-well plate. After 16-20 hours cells were treated with compound for 24 or 72 hours. At this time the serum and compound containing media was removed and replaced with 100 μl serum free media and 100 μl Cell Titer Fluor (Promega). The plate was incubated for 2 hours at 37° C. before reading fluorescence output. This assay is based on measurement of live-cell protease activity. The viability assay was performed to confirm that any effects of compounds on TEAD reporter were not the result of compound effects on viability. This assay was performed 3 times for Compound 1 and twice for Trametinib.

[2] = system: Hep3B2.1-7 tumor; experiment: Orthotopic Hep3B2.1-7 hepatocellular carcinoma xenograft; format: in vivo, SCID mice
Method: Female SCID mice were orthotopically inoculated with 2×10^6 Hep3B2.1-7 tumor cells per animal. Seven days post-inoculation the animals were randomized into treatment groups based on body weight and the treatment commenced (Study day 0). Take rate assessment of a satellite group confirmed the presence of tumor in the liver in 100% of the animals. Treatment with Compound 1 was started and Compound 1 was dosed orally, QD for 21 days. […] On the day of study termination, the tumors were removed and weighed. Individual tumor weights and the mean tumor weight±SEM of each group was plotted (FIG. 16). Percent inhibition was calculated relative to the vehicle control. P values were derived from a one-way ANOVA with a Dunnet's post-hoc analysis. ***=p<0.001.

[3] = system: MiaPaCa-2; experiment: Proliferation, CellTiter-Glo, 72 h; format: cell-based; settings: MiaPaCa-2, Pancreas

SMILES: C[C@]1(C(N)=O)CC[C@@H](n2c(Nc3c(Cl)cc(Cl)cc3Cl)nc3cnc(N[C@@H]4CCOC[C@H]4F)nc32)CC1 [Compound 1, cis-4-[2-{[(3S,4R)-3-fluorooxan-4-yl]amino}-8-(2,4,6-trichloroanilino)-9H-purin-9-yl]-1-methyl cyclohexane-1-carboxamide]
- Viability [1]: not reproducibly affected
- Body weight ([2]; 15 mg/kg orally QD 21 days): minimal body weight loss
- Body weight ([2]; 30 mg/kg orally QD 21 days): significant mean body weight gain
- Tumor weight compared to vehicle controls ([2]; orally, QD for 21 days): statistically significant reduction in tumor weight
- GI50 [3]: 0.0471 µM
